From patent EP1157997A1, “NOVEL DIPEPTIDE COMPOUND AND MEDICINAL USE THEREOF” (JAPAN ENERGY CORPORATION, priority 1999, dated 2001)

Key:
in vitro = in vitro ADME; conditions: human, plasma
Method: Freezed human plasma (HFFPP100) was used after thawing. Powder of human alpha 1-acid glycoprotein (supplied by SIGMA Co., hereinafter abbreviated to AAG) was dissolved in a phosphate buffer solution (PBS, pH 7.0) to a concentration of 1 mg/ml. Drug solutions were prepared by dissolving the compounds synthesized in Example 1 and Reference Example 1 in dimethylsulfoxide in various concentrations.
The drug solutions (10 µl, each) with different concentrations were added to 990 µl the plasma or AAG solutions prepared above, stirred well and incubated for 18 hours at 37°C to equilibrate binding proteins. All amount of the solution was transferred to Micropartition Devices (Centrifree® , Millipore Co.) and filtered by centrifugation at 1500 x g for 20 minutes (using TOMY CX-210 high-speed cooling centrifugal machine). 200 µl of the filtrate was directly subjected to HPLC (Type: HITACHI D-7000, column: COSMOSIL (4.6* 250 mm, manufactured by Nacalai Tesque Co., Ltd.). The HPLC analysis was carried out by using a 59:41 (v/v) water-acetonitrile mixture containing 0.1% trifluoroacetic acid (TFA) as a mobile phase and measuring absorbance at 210 nm. The quantitative determination of unbound drug concentration was carried out based on the absolute calibration curve method using a calibration line obtained from the analysis of a standard sample which contains the drug at a known concentration. […]

[1] = test system: HIV virus (HIV-1 IIIB strain); assay: Anti-HIV activity, cytopathic effect in CEM-SS cells by XTT dyeing, in the presence of 50% human blood serum; type: cell-based; conditions: Human immunodeficiency virus 1, IIIB, in the presence of 50% human blood serums, read-out: IC50 value in an anti-virus test
Method: The anti-HIV activity of the compounds synthesized Examples 1-15 and Reference Examples 1-4 was measured according to the method reported by O. S. Weislow et al. (J. Natl. Cancer Inst. 81, 577-586, 1989) using CEM-SS cells as host cells and HIV virus (HIV-1 IIIB strain) (see T. Mimoto et al., J. Med. Chem., 42, 1789-1802, 1999, etc.).
Specifically, the compounds synthesized Examples 1-15 and Reference Examples 1-5 in various concentrations were added to a culture medium on 96-well microtiter plates. Human blood serum was added to a final concentration of 50%, then HIV infected CEM-SS cells was added, followed by incubation in a CO2 atmosphere at 37°C for 6 days. The cytopathic effect induced by HIV-1 IIIB was measured by tetrazolium dye XTT dyeing method to evaluate the 50% inhibitory concentration (IC50).

fraction unbound at 18 h, 1 µM (in vitro) | IC50 [1] | Structure (SMILES)
0.013 | – | Cc1ccccc1CNC(=O)[C@H]1N(C(=O)[C@@H](O)[C@H](Cc2ccccc2)NC(=O)c2cccc(O)c2C)CSC1(C)C [Reference Example 1, reference compound]
0.029 | 6 ng/mL | COc1ccc(C[C@H](NC(=O)c2cccc(O)c2C)[C@H](O)C(=O)N2CSC(C)(C)[C@H]2C(=O)NCc2ccccc2C)cc1 [Example 1, (R)-N-(2-methylbenzyl)-3-[(2S,3S)-2-hydroxy-3-(3-hydroxy-2-methylbenzoyl)amino-4-(4-methoxyphenyl)butanoyl]-5,5-dimethyl-1,3-thiazolidine-4-carboxamide]
